The nature of one data set: Larval body length. Type of data set: in vivo, Zebrafish (Danio rerio). Particulars: 5 dpf, treatment from 2 hpf. As for the experimental part:
(§1) When the regeneration of the tail fins after wounding or the larval body length was used as a readout, chemical treatments of the embryos were started at 2 hours post fertilization (hpf) and continued until 5 dpf. During this period, solutions were refreshed daily. At 5 dpf, larvae were imaged using a LeicaMZ16FA fluorescence stereomicroscope supported by LAS 3.7 software, and the length of the larvae was measured using ImageJ software (15 larvae per treatment group). For the regeneration experiments, tail fins were amputated at 2 dpf and larvae were imaged at 5 dpf (15 larvae per treatment group). The newly grown tissue can be distinguished from the old tissue, enabling precise measurement of the size of the newly grown tissue using ImageJ software.

Data set [1] deals with collagen antibody-induced arthritis (CAIA).
A further data set deals with IL-6. Kind of data set: CAIA model: serum IL-6 by ELISA. The format is in vivo, mouse. How it is done:
All mice received 1.5 mg of a CAIA-cocktail (Chondrex) intravenously on day 1, followed by intraperitoneal (i.p.) injection of 50 μg LPS (Chondrex) on day 4. Mice were randomly divided into six groups. […] Scores were assigned blinded. […] The blood collection on day 14 was performed after 6 h fasting. On day 15, mice were sacrificed using carbon dioxide, and tissue samples were collected that were immediately frozen in liquid nitrogen. Applied humane endpoints were a total body weight loss of >20% in comparison to the day of LPS treatment or reaching an arthritis score of 45.
IL-6 concentrations were determined by ELISA in the serum collected at days 10 and 15, using the IL-6 mouse ELISA kit (Invitrogen), following the manufacturer's protocol. The insulin concentration was determined in serum collected at day 14, using the Ultra-sensitive mouse insulin ELISA kit (Crystal Chem), following the manufacturer's protocol. Corticosterone concentrations were determined in serum collected at day 15, using the Corticosterone HS (high sensitivity) enzyme immunoassay kit (Immunodiagnostic Systems), following the manufacturer's protocol. Expression levels of various GR target genes were determined by qPCR in the tissue samples (homogenized in TRIzol Reagent (ThermoFisher)) collected at day 15.

Data set [2] deals with neutrophils migrated to the wounded area. Kind of data set: Tail fin amputation assay: neutrophil migration to the wounded area. Type of data set: in vivo, Zebrafish (Danio rerio). How it is done:
Zebrafish (Danio rerio) were maintained and handled according to the guidelines from the Zebrafish Model Organism Database (https://zfin.org/) and in compliance with the directives of the local animal welfare committee of Leiden University. To maintain circadian rhythmicity, adult fish were exposed to a 14 h light and 10 h dark cycle. Fertilization was performed by natural spawning at the beginning of the light period. Fertilized eggs were collected and raised at 28° C. in egg water (60 μg/ml Instant Ocean sea salts and 0.0025% methylene blue). The following zebrafish lines were used in this study: AB/TL wild type, the transgenic lines Tg(mpx:GFP^i114/mpeg1:mCherry^umsF001) (Bernut et al., (2014). Mycobacterium abscessus cording prevents phagocytosis and promotes abscess formation. Proc Natl Acad Sci USA 111, E943-952; Renshaw et al., (2006). A transgenic zebrafish model of neutrophilic inflammation. Blood 108, 3976-3978), and Tg(9xGCRE-HSV.UI123:EGFP)^ia20 (Benato et al., (2014). A living biosensor model to dynamically trace glucocorticoid transcriptional activity during development and adult life in zebrafish. Mol Cell Endocrinol 392, 60-72), and the mutant lines gba2^−/− (Lelieveld et al., (2019). Role of beta-glucosidase 2 in aberrant glycosphingolipid metabolism: model of glucocerebrosidase deficiency in zebrafish. J Lipid Res 60, 1851-1867) and gr^s357 (Ziv et al., (2013). An affective disorder in zebrafish with mutation of the glucocorticoid receptor. Mol Psychiatry 18, 681-691).
For the tail fin amputation experiments, 3 days post fertilization (dpf) larvae from the Tg(mpx:GFP^i114/mpeg1:mCherry^umsF001) line were anesthetized in 0.02% buffered aminobenzoic acid ethyl ester (tricaine) in egg water and placed on a 2% agarose-coated petri dish. The tails were partially amputated with a 1 mm sapphire blade (World Precision Instruments) under a Leica M165C stereomicroscope (Leica Microsystems, Wetzlar, Germany). Chemical treatment (or 0.1% DMSO as vehicle treatment) was started at 2 h before the amputation (pretreatment) and was continued for 4 h after the tail fin amputation (20 larvae per group, unless indicated otherwise), at which time point the larvae were fixed in 4% paraformaldehyde (PFA) overnight at 4° C. and stored at 4° C. until further examination. In some experiments, a 24 h treatment with miglustat, ME656 or MZ31 was started at 2 dpf, and these treatments were continued during the pretreatment and treatment with the other chemicals. For imaging of larvae from the Tg(mpx:GFP^i114/mpeg1:mCherry^umsF001) line, a LeicaMZ16FA fluorescence stereomicroscope with LAS 3.7 software was used. Neutrophils were detected by GFP fluorescence and macrophages by mCherry fluorescence. The neutrophil numbers were determined by blinded manual counting in a pre-determined area. When larvae from gba2^−/− or gr^s357mutant lines were used, neutrophil labeling was performed with the TSA fluorescein detection kit (PerkinElmer) for specific staining of Myeloperoxidase (Mpx)-positive cells, following the manufacturer's instructions.

For another data set, the system named is Gr. The data set can be described thus: Transactivation activity of Gr in Tg(9xGCRE-HSV.UI23:EGFP) reporter line. To be noted: 24 h treatment, 3 dpf larvae. Type of data set: in vivo, Zebrafish (Danio rerio). How it is done:
The Tg(9xGCRE-HSV.UI23:EGFP)^ia20 zebrafish reporter line expresses enhanced green fluorescent protein (EGFP) under the control of a promoter containing an array of nine GREs. To study the effect of chemical treatments on the transactivation activity of the Gr, 15 zebrafish embryos per group (2 dpf) were treated with the indicated compounds for 24 hours. The transactivation activity of Gr induced by the treatments was assessed using a LeicaMZ16FA fluorescence stereomicroscope supported by LAS 3.7 software. The integrated intensity of the EGFP signal in the larvae was determined using ImageJ software.

The next data set concerns regenerated tail fin. The data set can be described thus: Regeneration of the tail fin after wounding. The format is in vivo, Zebrafish (Danio rerio). To be noted: 5 dpf larvae, wounded at 2 dpf. As for the experimental part:
as §1

Data set [3] is described as follows: Whole-body glucose measurement in larvae.
Method: Zebrafish embryos at 2 hpf received a chemical treatment, as indicated, with daily refreshment of the solutions, until 5 dpf. At 5 dpf, the larvae were collected in an Eppendorf tube and 100 μL of ice-cold glucose buffer was added to each sample. The larvae were homogenized using a BulletBlender® for 3 min at 8,000 rpm. The homogenates were then centrifuged at 4° C. for 8 min at 11000 rpm and the supernatant was stored at −20° C. Whole-body glucose concentrations were determined using a Glucose Colorimetric Assay kit (Cayman Chemical, USA), according to the manufacturer's instructions. In each experiment, three biological replicates were used for each treatment group, and the colorimetric assay was performed using technical duplicates.

Where two headings read alike, the source gives them in different places.

For the molecule `C[C@]12C=CC(=O)C=C1CC[C@@H]1[C@@H]2[C@@H](O)C[C@@]2(C)[C@H]1CC[C@]2(O)C(=O)CO[C@@H]1O[C@H](CO[C@@H]2O[C@H](CO)[C@@H](O)[C@H](O)[C@H]2O)[C@@H](O)[C@H](O)[C@H]1O` [GbPdn, 21-O-Gentobiose-Prednisolone], the larval length result in “Larval body length” is given as “neither did it affect the length of the larvae”. Moreover, the “day of maximal effect on arthritis score” value in data set [1] (12.5 mg/kg i.p. daily from day 7) was 15 days; in data set [1] (25 mg/kg i.p. daily from day 7), 14 days; in data set [1] (50 mg/kg i.p. daily from day 7), 13 days. Besides, the “arthritis scores after treatment initiation” value in data set [1] (all dose groups, daily i.p. from day 7) is on record as “decreased rapidly after treatment initiation”. For the same molecule, the “serum IL-6 level compared to other treated groups” value with IL-6 (day 10, 12.5 mg/kg) is reported as “slightly higher IL-6 concentration compared to the other groups”. In addition, the “serum IL-6 level compared to the vehicle group” value with IL-6 (day 10, all treatment groups) is listed as “significant reduction of the IL-6 level”. Moreover, the “serum IL-6 level” value is “a very low level was detected in two (out of four) mice” in the data set on IL-6 (day 15, 12.5 mg/kg) and “undetectable” in the data set on IL-6 (day 15, all groups except 12.5 mg/kg GbPdn). Further, the “reduction in neutrophil migration in the presence of MZ31” value in data set [2] (GBA2 inhibitor MZ31) is on record as “abolished by MZ31”. The “migration of neutrophils towards the wounded area” value in data set [2] (wild type larvae, 4 h after tail wounding) is “decrease in the migration of neutrophils”. For the same molecule, in the data set on Gr, the “transactivation activity of Gr (GFP signal in GRE:GFP reporter fish line)” value was “neither GPdn nor GbPdn induced the transactivation activity of the Gr”. The “tissue regeneration (length of regenerated tail fin)” value with regenerated tail fin is “small effect”. The “tissue regeneration with MZ31” value in the data set with regenerated tail fin (GBA2 inhibitor MZ31) is reported as “dependent on Gba2 activity”. Besides, the “whole body glucose level” value in data set [3] (5 dpf larvae treated from 2 hpf, non-wounded) is listed as “did not affect the glucose or cortisol concentration”. For the same molecule, the “whole body glucose level under wounding conditions” value in data set [3] (5 dpf larvae, wounded at 2 dpf) is given as “increase in glucose levels”.
